Assay results taken from patent US20240058464A1 (Fortis Therapeutics, Inc., priority 2021, published 2024).
Where a SMILES comes first, the peptide text is derived from it. [ ]: non-standard residue; d: D form. The star is where a group is joined. dPhe(4-NHCONH2) = NC(=O)Nc1ccc(C[C@@H](N)C(=O)O)cc1; Dihydroorotyl(S) = O=C1C[C@@H](C(=O)*)NC(=O)N1; dPhe(4-Cl) = N[C@H](Cc1ccc(Cl)cc1)C(=O)O; Phe(4-NH2) = Nc1ccc(C[C@H](N)C(=O)O)cc1; d2Nal = N[C@H](Cc1ccc2ccccc2c1)C(=O)O; Lys(iPr) = CC(C)NCCCC[C@H](N)C(=O)O; d3Pal = N[C@H](Cc1cccnc1)C(=O)O

System: CD46 expression
Assay: CD46 expression by RNA-sequencing in unpaired pre-treatment and post-treatment tumor biopsies
Format: in vivo, human
[1] = Clear Cell Renal Cell Carcinoma, post minus pre, unpaired biopsies
[2] = Clear Cell Renal Cell Carcinoma, post vs pre, unpaired biopsies
[3] = Clear Cell Renal Cell Carcinoma, post-treatment biopsies, log2-transformed RNA-seq counts
[4] = Sarcoma, Post minus Pre, unpaired biopsies, log2-transformed counts
[5] = Sarcoma, post- vs pre-treatment unpaired biopsies
[6] = Sarcoma, post-treatment biopsies, unpaired, RNA-seq log2-transformed normalized counts
[7] = Breast Cancer, post minus pre, unpaired biopsies
[8] = Breast Cancer, post vs pre, unpaired biopsies
[9] = Breast Cancer, post-treatment biopsies, log2-transformed RNA-seq counts
[10] = Colorectal Cancer, Post minus Pre, unpaired biopsies, log2-transformed counts
[11] = Colorectal Cancer, post- vs pre-treatment unpaired biopsies
[12] = Colorectal Cancer, post-treatment biopsies, unpaired, RNA-seq log2-transformed normalized counts
[13] = Breast Cancer, Post minus Pre, unpaired biopsies, log2-transformed counts
[14] = Breast Cancer, post- vs pre-treatment unpaired biopsies
[15] = Breast Cancer, post-treatment biopsies, unpaired, RNA-seq log2-transformed normalized counts
[16] = Non-Small Cell Lung Cancer, Post minus Pre, unpaired biopsies, log2-transformed counts
[17] = Non-Small Cell Lung Cancer, post- vs pre-treatment unpaired biopsies
[18] = Non-Small Cell Lung Cancer, post-treatment biopsies, unpaired, RNA-seq log2-transformed normalized counts
[19] = Non-Small Cell Lung Cancer, post minus pre, unpaired biopsies
[20] = Non-Small Cell Lung Cancer, post vs pre, unpaired biopsies
[21] = Non-Small Cell Lung Cancer, post-treatment biopsies, log2-transformed RNA-seq counts

Compound: C[C@@H](O)[C@@H]1NC(=O)[C@H](CCCCN)NC(=O)[C@@H](Cc2c[nH]c3ccccc23)NC(=O)[C@H](Cc2ccccc2)NC(=O)[C@@H](NC(=O)[C@H](N)Cc2ccccc2)CSSC[C@@H](C(=O)N[C@H](CO)[C@@H](C)O)NC1=O [octreotide]
- CD46 expression diff (Endocrine Tumor, Post minus Pre, unpaired biopsies, log2-transformed counts): −0.05
- CD46 expression Percentage change (Endocrine Tumor, post- vs pre-treatment unpaired biopsies): −0.9%
- CD46 expression Post (Endocrine Tumor, post-treatment biopsies, unpaired, RNA-seq log2-transformed normalized counts): 5.59

Compound: COc1cc2nccc(Oc3ccc(NC(=O)C4(C(=O)Nc5ccc(F)cc5)CC4)cc3)c2cc1OC [cabozantinib]
- CD46 expression diff (Clear Cell Renal Cell Carcinoma, Post minus Pre, unpaired biopsies, log2-transformed counts): −0.12
- CD46 expression Percentage change (Clear Cell Renal Cell Carcinoma, post- vs pre-treatment unpaired biopsies): −2.1%
- CD46 expression Post (Clear Cell Renal Cell Carcinoma, post-treatment biopsies, unpaired, RNA-seq log2-transformed normalized counts): 5.44

Compound: Cc1ccc(Nc2nccc(N(C)c3ccc4c(C)n(C)nc4c3)n2)cc1S(N)(=O)=O [pazopanib]
- CD46 expression diff [1]: −0.22
- CD46 expression Percentage change [2]: −4.0%
- CD46 expression Post [3]: 5.37
- CD46 expression diff [4]: −0.10
- CD46 expression Percentage change [5]: −1.9%
- CD46 expression Post [6]: 5.03

Compound: ado-trastuzumab emtansine
- CD46 expression Percentage change (in vivo): −0.8%
- CD46 expression Post (in vivo): 6.20
- CD46 expression diff (in vivo): −0.05

Compound: CN(C)C(=O)c1cc2cnc(Nc3ccc(N4CCNCC4)cn3)nc2n1C1CCCC1 [ribociclib]
- CD46 expression diff [7]: −0.17
- CD46 expression Percentage change [8]: −2.6%
- CD46 expression Post [9]: 6.30

Compound: CO[C@@]12[C@H](COC(N)=O)C3=C(C(=O)C(C)=C(N)C3=O)N1C[C@@H]1N[C@@H]12 [mitomycin]
- CD46 expression diff [10]: 0.23
- CD46 expression Percentage change [11]: 3.9%
- CD46 expression Post [12]: 5.93

Compound: aflibercept
- CD46 expression diff [10]: 0.21
- CD46 expression Percentage change [11]: 3.3%
- CD46 expression Post [12]: 6.58

Compound: NC(=O)c1cccc2cn(-c3ccc([C@@H]4CCCNC4)cc3)nc12 [niraparib]
- CD46 expression Percentage change (in vivo): 0.1%
- CD46 expression Post (in vivo): 5.72
- CD46 expression diff (in vivo): 0.00

Compound: CC(C)C[C@H](NC(=O)[C@@H](COC(C)(C)C)NC(=O)[C@H](Cc1ccc(O)cc1)NC(=O)[C@H](CO)NC(=O)[C@H](Cc1c[nH]c2ccccc12)NC(=O)[C@H](Cc1cnc[nH]1)NC(=O)[C@@H]1CCC(=O)N1)C(=O)N[C@@H](CCCNC(=N)N)C(=O)N1CCC[C@H]1C(=O)NNC(N)=O [goserelin]
- CD46 expression diff [13]: 0.00
- CD46 expression Percentage change [14]: −0.1%
- CD46 expression Post [15]: 6.38

Compound: CC[C@]1(O)C[C@@H]2CN(CCc3c([nH]c4ccccc34)[C@@](C(=O)OC)(c3cc4c(cc3OC)N(C)[C@H]3[C@@](O)(C(=O)OC)[C@H](OC(C)=O)[C@]5(CC)C=CCN6CC[C@]43[C@@H]65)C2)C1 [vinblastine]
- CD46 expression diff (Bladder Cancer, post minus pre, unpaired biopsies): −0.24
- CD46 expression Percentage change (Bladder Cancer, post vs pre, unpaired biopsies): −3.9%
- CD46 expression Post (Bladder Cancer, post-treatment biopsies, log2-transformed RNA-seq counts): 5.89

Compound: CNC(=O)c1ccc(N2C(=S)N(c3cnc(C#N)c(C(F)(F)F)c3)C(=O)C23CCC3)cc1F [apalutamide]
- CD46 expression diff (Prostate Cancer, Post minus Pre, unpaired biopsies, log2-transformed counts): −0.03
- CD46 expression Percentage change (Prostate Cancer, post- vs pre-treatment unpaired biopsies): −0.5%
- CD46 expression Post (Prostate Cancer, post-treatment biopsies, unpaired, RNA-seq log2-transformed normalized counts): 6.14

Compound: CN(C)C(=N)N=C(N)N [metformin]
- CD46 expression diff [10]: 0.27
- CD46 expression Percentage change [11]: 4.2%
- CD46 expression Post [12]: 6.70
- CD46 expression diff [16]: 0.03
- CD46 expression Percentage change [17]: 0.5%
- CD46 expression Post [18]: 6.07

Compound: CCc1cc2c(cc1N1CCC(N3CCOCC3)CC1)C(C)(C)c1[nH]c3cc(C#N)ccc3c1C2=O [alectinib]
- CD46 expression diff [16]: −0.03
- CD46 expression Percentage change [17]: −0.5%
- CD46 expression Post [18]: 6.18

Compound: COc1cc2nccc(Oc3ccc(NC(=O)NC4CC4)c(Cl)c3)c2cc1C(N)=O [lenvatinib]
- CD46 expression diff (Thyroid Cancer, Post minus Pre, unpaired biopsies, log2-transformed counts): −0.02
- CD46 expression Percentage change (Thyroid Cancer, post- vs pre-treatment unpaired biopsies): −0.4%
- CD46 expression Post (Thyroid Cancer, post-treatment biopsies, unpaired, RNA-seq log2-transformed normalized counts): 5.82

Compound: CCN1CCN(Cc2ccc(Nc3ncc(F)c(-c4cc(F)c5nc(C)n(C(C)C)c5c4)n3)nc2)CC1 [abemaciclib]
- CD46 expression diff [7]: −0.15
- CD46 expression Percentage change [8]: −2.4%
- CD46 expression Post [9]: 6.33

Compound: CC(=O)N[C@H](Cc1ccc2ccccc2c1)C(=O)N[C@H](Cc1ccc(Cl)cc1)C(=O)N[C@H](Cc1cccnc1)C(=O)N[C@@H](CO)C(=O)N[C@@H](Cc1ccc(NC(=O)[C@@H]2CC(=O)NC(=O)N2)cc1)C(=O)N[C@H](Cc1ccc(NC(N)=O)cc1)C(=O)N[C@@H](CC(C)C)C(=O)N[C@@H](CCCCNC(C)C)C(=O)N1CCC[C@H]1C(=O)N[C@H](C)C(N)=O [degarelix] (Ac-[d2Nal][dPhe(4-Cl)][d3Pal]S[Phe(4-NH2)](Dihydroorotyl(S))[dPhe(4-NHCONH2)]L[Lys(iPr)]P[dA]-NH2)
- CD46 expression diff (Prostate Cancer, post minus pre, unpaired biopsies): −0.29
- CD46 expression Percentage change (Prostate Cancer, post vs pre, unpaired biopsies): −4.6%
- CD46 expression Post (Prostate Cancer, post-treatment biopsies, log2-transformed RNA-seq counts): 5.94
- CD46 expression Pre (Prostate Cancer, pre-treatment biopsies, log2-transformed RNA-seq counts): 6.23

Compound: CC[C@]1(O)C[C@H]2CN(CCc3c([nH]c4ccccc34)[C@@](C(=O)OC)(c3cc4c(cc3OC)N(C=O)[C@H]3[C@@](O)(C(=O)OC)[C@H](OC(C)=O)[C@]5(CC)C=CCN6CC[C@]43[C@@H]65)C2)C1 [vincristine]
- CD46 expression diff [4]: −0.03
- CD46 expression Percentage change [5]: −0.5%
- CD46 expression Post [6]: 5.09

Compound: CN(C)C/C=C/C(=O)Nc1cc2c(Nc3ccc(F)c(Cl)c3)ncnc2cc1O[C@H]1CCOC1 [afatinib]
- CD46 expression diff [16]: 0.11
- CD46 expression Percentage change [17]: 1.7%
- CD46 expression Post [18]: 6.43

Compound: C[C@H]1C[C@@H]2[C@H]([C@@H](O)C[C@@]3(C)[C@H]2CC[C@]3(O)C(=O)CO)[C@@]2(C)C=CC(=O)C=C12 [methylprednisolone]
- CD46 expression diff [13]: 0.31
- CD46 expression Percentage change [14]: 5.0%
- CD46 expression Post [15]: 6.49
- CD46 expression diff [16]: −0.04
- CD46 expression Percentage change [17]: −0.6%
- CD46 expression Post [18]: 6.16

Compound: CNC(=O)c1ccccc1Sc1ccc2c(/C=C/c3ccccn3)n[nH]c2c1 [axitinib]
- CD46 expression diff [1]: −0.29
- CD46 expression Percentage change [2]: −5.1%
- CD46 expression Post [3]: 5.43

Compound: CC(=O)Nc1cccc(-n2c(=O)n(C3CC3)c(=O)c3c(Nc4ccc(I)cc4F)n(C)c(=O)c(C)c32)c1 [trametinib]
- CD46 expression diff (Melanoma, Post minus Pre, unpaired biopsies, log2-transformed counts): 0.08
- CD46 expression Percentage change (Melanoma, post- vs pre-treatment unpaired biopsies): 1.4%
- CD46 expression Post (Melanoma, post-treatment biopsies, unpaired, RNA-seq log2-transformed normalized counts): 5.39

Compound: CCC1=C[C@@H]2CN(C1)Cc1c([nH]c3ccccc13)[C@@](C(=O)OC)(c1cc3c(cc1OC)N(C)[C@H]1[C@@](O)(C(=O)OC)[C@H](OC(C)=O)[C@]4(CC)C=CCN5CC[C@]31[C@@H]54)C2 [vinorelbine]
- CD46 expression diff [13]: −0.13
- CD46 expression Percentage change [14]: −2.0%
- CD46 expression Post [15]: 6.24
- CD46 expression diff [19]: −0.20
- CD46 expression Percentage change [20]: −3.3%
- CD46 expression Post [21]: 5.98

Compound: O=S(=O)(O)CCS [mesna]
- CD46 expression diff (Sarcoma, post minus pre, unpaired biopsies): −0.16
- CD46 expression Percentage change (Sarcoma, post vs pre, unpaired biopsies): −3.2%
- CD46 expression Post (Sarcoma, post-treatment biopsies, log2-transformed RNA-seq counts): 4.88

Compound: olaratumab
- CD46 expression diff [4]: 0.11
- CD46 expression Percentage change [5]: 2.3%
- CD46 expression Post [6]: 5.10

Compound: N[C@@H](Cc1cc(I)c(Oc2cc(I)c(O)c(I)c2)c(I)c1)C(=O)O [levothyroxine]
- CD46 expression diff [19]: −0.17
- CD46 expression Percentage change [20]: −2.9%
- CD46 expression Post [21]: 5.87

Compound: pertuzumab
- CD46 expression diff [13]: −0.08
- CD46 expression Percentage change [14]: −1.3%
- CD46 expression Post [15]: 6.25

Compound: C[C@@H](Oc1cc(-c2cnn(C3CCNCC3)c2)cnc1N)c1c(Cl)ccc(F)c1Cl [crizotinib]
- CD46 expression diff [16]: 0.16
- CD46 expression Percentage change [17]: 2.7%

Compound: COc1cc2c(cc1O)CCN[C@]21CS[C@@H]2c3c(OC(C)=O)c(C)c4c(c3[C@H](COC1=O)N1[C@@H]2[C@H]2c3c(cc(C)c(OC)c3O)C[C@@H]([C@@H]1O)N2C)OCO4 [trabectedin]
- CD46 expression diff [4]: 0.00
- CD46 expression Percentage change [5]: −0.1%
- CD46 expression Post [6]: 5.23
